Laboratory results: article PMC11539907, “Cytotoxicity of norstictic acid derivatives, a depsidone from Ramalina anceps Nyl” (Turkish Journal of Chemistry, 2024)
Entries after “also recorded” stand apart in the source; their conditions may differ. Read-outs that look alike come from different tables or passages of the source. One block for each compound: values may come before it.

Experiments:
[1] = tested on: UACC-62 (human melanoma) cells; experiment: sulforhodamine B (SRB) cytotoxicity assay, UACC-62; type: cell-based; details: for selectivity index (SI): GI50 on 3T3 cells divided by GI50 on UACC-62; for GI50: Homo sapiens, UACC-62 cells, SRB assay, read-out: growth inhibition (GI50)
Description: [Worded in the source for another cell line; this cell line is reported under the same test.] (§1) MCF7 (ATCC HTB-22, breast adenocarcinoma), 786-0 (ATCC CRL-1932, renal cell adenocarcinoma), PC-03 (ATCC CRL-1435, prostatic adenocarcinoma), HT-29 (ATCCHTB-38, colorectal adenocarcinoma), and HEP2 (ATCC CCL-23, laryngeal carcinoma) cells donated by Dr. João Ernesto de Carvalho (CPQBA – UNICAMP), and NIH/3T3 cells (ATCC CRL-1658, mouse embryonic fibroblast), purchased from the Rio de Janeiro Cell Bank, were used for the evaluation of cytotoxic activity. Cell maintenance and treatment were performed as described by Freshney. The sulforhodamine B (SRB) assay was carried out according to Brandão et al. and Bogo et al..
(§2) The selectivity index (SI) measures a compound’s ability to target a neoplastic cell line rather than a normal cell line, indicating its potential for use in clinical trials. In the present study, the SI of each substance was calculated as the quotient of its GI50 value for normal NIH/3T3 cells divided by the GI50 value for a neoplastic cell line. SI values greater than 3.0 were considered significant.

[2] = tested on: HT-29 (colon carcinoma) cells; experiment: sulforhodamine B (SRB) cytotoxicity assay, HT-29; type: cell-based; details: for selectivity index (SI): GI50 on 3T3 cells divided by GI50 on HT-29; for GI50: Homo sapiens, HT-29 cells, SRB assay, read-out: growth inhibition (GI50)
Description: as §1, §2

[3] = tested on: NIH/3T3 (mouse embryonic fibroblast) cells; experiment: sulforhodamine B (SRB) cytotoxicity assay, NIH/3T3 normal cells; type: cell-based; details: for GI50: Mus musculus, NIH3T3, NIH/3T3 normal cells, SRB assay, read-out: growth inhibition (GI50)
Description: as §1, §2

[4] = tested on: MCF7 (breast carcinoma) cells; experiment: sulforhodamine B (SRB) cytotoxicity assay, MCF7; type: cell-based; details: for selectivity index (SI): GI50 on 3T3 cells divided by GI50 on MCF7; for GI50: Homo sapiens, MCF7 cells, SRB assay, read-out: growth inhibition (GI50)
Description: as §1, §2

[5] = tested on: 786-0 (kidney carcinoma) cells; experiment: sulforhodamine B (SRB) cytotoxicity assay, 786-0; type: cell-based; details: for selectivity index (SI): GI50 on 3T3 cells divided by GI50 on 786-0; for GI50: Homo sapiens, 786-0 cells, SRB assay, read-out: growth inhibition (GI50)
Description: as §1, §2

[6] = tested on: PC-03 (prostate carcinoma) cells; experiment: sulforhodamine B (SRB) cytotoxicity assay, PC-03; type: cell-based; details: for selectivity index (SI): GI50 on 3T3 cells divided by GI50 on PC-03; for GI50: PC-03 cells, SRB assay, read-out: growth inhibition (GI50)
Description: as §1, §2

[7] = tested on: UACC-62 (human melanoma) cells; details: cited from earlier work; for selectivity index (SI): 3T3 vs UACC-62
[8] = tested on: B16-F10 (murine melanoma) cells; experiment: sulforhodamine B (SRB) cytotoxicity assay, B16-F10; type: cell-based; details: for selectivity index (SI): GI50 on 3T3 cells divided by GI50 on B16-F10; for GI50: Mus musculus, B16-F10 cells, SRB assay, read-out: growth inhibition (GI50)
Description: [Worded in the source for another cell line; this cell line is reported under the same test.] as §1, §2

[9] = tested on: HEP2 (laryngeal carcinoma) cells; experiment: sulforhodamine B (SRB) cytotoxicity assay, HEP2; type: cell-based; details: for selectivity index (SI): GI50 on 3T3 cells divided by GI50 on HEP2; for GI50: Homo sapiens, HEp-2, HEP2 cells, SRB assay, read-out: growth inhibition (GI50)
Description: as §1, §2

[10] = tested on: MCF7 (breast carcinoma) cells; parameters: method as in Bogo et al. (2020); details: ref Bogo et al. (2020), cited from earlier work
TNBC MDA-MB-231 cells = tested on: TNBC MDA-MB-231 cells; parameters: method as in PMID 26744260; details: cited from earlier work
[11] = tested on: NIH/3T3 (mouse embryonic fibroblast) cells; parameters: method as in Bogo et al. (2020); details: NIH/3T3 normal cells; ref Bogo et al. (2020); read-out: growth inhibition (GI50); cited from earlier work
[12] = tested on: B16-F10 (murine melanoma) cells; parameters: method as in Brandão et al. (2013); details: ref Brandão et al. (2013), cited from earlier work
[13] = tested on: tested tumor cells (786-0, MCF7, HT-29, PC-03, HEP2, B16-F10, UACC-62); details: cited from earlier work; for cytotoxic activity in words: panel of tumor cells
[14] = tested on: 786-0 (kidney carcinoma) cells; parameters: method as in Bogo et al. (2020); details: ref Bogo et al. (2020), cited from earlier work
[15] = tested on: HEP2 (laryngeal carcinoma) cells; parameters: method as in Bogo et al. (2020); details: ref Bogo et al. (2020), cited from earlier work
[16] = tested on: MCF-10A mammary epithelial cells; parameters: method as in PMID 26744260; details: cited from earlier work
[17] = tested on: HT-29 (colon carcinoma) cells; parameters: method as in Bogo et al. (2020); details: ref Bogo et al. (2020), cited from earlier work
[18] = tested on: PC-03 (prostate carcinoma) cells; parameters: method as in Bogo et al. (2020); details: ref Bogo et al. (2020), cited from earlier work
[19] = tested on: MDA-MB-231/GFP cells implanted into athymic female nude mice; parameters: method as in PMID 26744260; details: cited from earlier work
[20] = tested on: tested tumor cells (786-0, MCF7, HT-29, PC-03, HEP2, B16-F10, UACC-62); experiment: sulforhodamine B (SRB) cytotoxicity assay, results stated over several cell lines; type: cell-based; details: for cytotoxic activity in words: cell lines as named in the quoted words
Description: as §1, §2

[21] = listed as 8′-O-isopropyl-norstictic acid

Compound: COc1cccc2c1C(=O)c1c(O)c3c(c(O)c1C2=O)C[C@@](O)(C(=O)CO)C[C@@H]3O[C@H]1C[C@H](N)[C@H](O)[C@H](C)O1 [Doxorubicin, reference compound]
selectivity index (SI) [1]: 4.5 | GI50 [1]: 0.12 µM | selectivity index (SI) [2]: 1.23 | GI50 [2]: 0.43 µM | GI50 [3]: 0.55 µM | selectivity index (SI) [4]: 6.4 | GI50 [4]: 0.086 µM | selectivity index (SI) [5]: 1.23 | GI50 [5]: 0.43 µM | selectivity index (SI) [6]: 16.0 | GI50 [6]: 0.034 µM | selectivity index (SI) ([7]; ref Brandão et al. (2013)): 1.2 | selectivity index (SI) [8]: 1.28 | GI50 [8]: 0.43 µM | selectivity index (SI) [9]: 0.84 | GI50 [9]: 0.65 µM

Compound: Cc1cc(O)c(C=O)c2c1C(=O)Oc1c(C)c(O)c3c(c1O2)C(O)OC3=O (centres unmarked) [compound 1, Norstictic acid]
selectivity index (SI) ([10]; 3T3 vs MCF7): 4.3 | GI50 ([10]; MCF7 cells, read-out: growth inhibition (GI50)): 162 µM | proliferation, migration, and invasion in words (TNBC MDA-MB-231 cells): significantly suppressed the proliferation, migration, and invasion | GI50 [11]: 696 µM | selectivity index (SI) ([12]; 3T3 vs B16-F10): >4.1 | GI50 ([12]; B16-F10 cells, read-out: growth inhibition (GI50)): 168 µM | GI50 ([13]; MCF7, HEP2, PC-03, B16-F10, and UACC-62 cells, ref Bogo et al. (2020), Brandão et al. (2013), read-out: GI50, range): 88.4 to 191 µM | cytotoxic activity in words ([13]; listed as Norstictic acid): poor activity | cytotoxic activity in words ([13]; listed as norstictic acid): low cytotoxic activity | selectivity index (SI) ([14]; 3T3 vs 786-0, from literature GI50 values): 0.9 | GI50 ([14]; 786-0 cells, read-out: growth inhibition (GI50)): 759 µM | selectivity index (SI) ([15]; 3T3 vs HEP2): 4.4 | GI50 ([15]; HEP2 cells, read-out: growth inhibition (GI50)): 157 µM | toxicity to nontumorogenic cells in words [16]: minimal toxicity | selectivity index (SI) ([7]; ref Brandão et al. (2013)): >7.6 | GI50 ([7]; UACC-62 cells, ref Brandão et al. (2013), read-out: growth inhibition (GI50)): 88.4 µM | growth inhibition effect (GI50) ([7]; UACC-62 human melanoma cells): 32.9 µg/mL | selectivity index (SI) ([17]; 3T3 vs HT-29, from literature GI50 values): 0.7 | GI50 ([17]; HT-29 cells, read-out: growth inhibition (GI50)): 916 µM | selectivity index (SI) ([18]; 3T3 vs PC-03 (PC-3)): 3.6 | GI50 ([18]; PC-03 cells, read-out: growth inhibition (GI50)): 191 µM | in vivo effect on tumor growth in words [19]: tolerability and significant inhibitory effect

Compound: Cc1cc(O)c(C=O)c2c1C(=O)Oc1c(C)c(O)c3c(c1O2)C(OC(C)C)OC3=O (centres unmarked) [compound 6, 8′-O-isopropyl-norstictic acid]
selectivity index (SI), range ([20]; PC-03, HEP2, B16-F10, and UACC-62 cells vs NIH/3T3): 4.48 to 33.8 | GI50 ([20]; PC-03, HEP2, B16-F10, and UACC-62 cells, read-out: GI50, range): 1.28 to 9.65 µM | cytotoxic activity in words [20]: active against PC-03, HEP2, B16-F10, and UACC-62 cells | selectivity index (SI) [1]: 7.0 | GI50 [1]: 6.2 µM | selectivity index (SI) [2]: 0.86 | GI50 [2]: 50.2 µM | GI50 [3]: 43.2 µM | selectivity index (SI) [4]: 0.73 | GI50 [4]: 59.3 µM | selectivity index (SI) [5]: 0.86 | GI50 [5]: 50.1 µM | selectivity index (SI) [6]: 33.8 | GI50 [6]: 1.28 µM | melting point: 185 °C | selectivity index (SI) [8]: 4.48 | selectivity index (SI) [8, 21]: 4.5 | GI50 [8]: 9.65 µM | selectivity index (SI) [9]: 5.56 | selectivity index (SI) [9, 21]: 5.5 | GI50 [9]: 7.78 µM

More lines, main results first:

melting point: 170 °C
Compound: CCC(C)OC1OC(=O)c2c(O)c(C)c3c(c21)Oc1c(C=O)c(O)cc(C)c1C(=O)O3 (centres unmarked) [compound 7, 8′-O-sec-butyl-norstictic acid]
selectivity index (SI), range over all tumor cells ([20]; all tested tumor cells vs NIH/3T3): 11.30–87.40 | GI50 ([20]; all tested tumor cells, read-out: GI50, range over all tumor cells): 6.8 to 52.4 µM | selectivity index (SI) [1]: 20.2 | GI50 [1]: 29.4 µM | selectivity index (SI) [2]: 48.3 | GI50 [2]: 12.3 µM | effect on normal cells in words ([3]; 3T3 cells): lowest effect on 3T3 cells | GI50 [3]: 594 µM | selectivity index (SI) [4]: 87.4 | GI50 [4]: 6.8 µM | selectivity index (SI) [5]: 27.78 | GI50 [5]: 21.4 µM | selectivity index (SI) [6]: 11.30 | GI50 [6]: 52.4 µM | selectivity index (SI) [8]: 64.4 | GI50 [8]: 9.2 µM | selectivity index (SI) [9]: 78.0 | GI50 [9]: 7.6 µM

melting point: 196 °C
Compound: Cc1cc(O)c(C=O)c2c1C(=O)Oc1c(C)c(O)c3c(c1O2)C(OC(C)(C)C)OC3=O (centres unmarked) [compound 8, 8′-O-tert-butyl-norstictic acid]
cytotoxic activity in words [20]: active only against PC-03 cells; also recorded: low biological activity | selectivity index (SI) [1]: 0.57 | GI50 [1]: 67.1 µM | selectivity index (SI) [2]: 0.28 | GI50 [2]: 139 µM | GI50 [3]: 38.5 µM | selectivity index (SI) [4]: 0.6 | GI50 [4]: 64.2 µM | selectivity index (SI) [5]: 0.6 | GI50 [5]: 63.3 µM | selectivity index (SI) [6]: 5.0 | GI50 [6]: 7.6 µM | selectivity index (SI) [8]: 0.42 | GI50 [8]: 90.3 µM | selectivity index (SI) [9]: 0.66 | GI50 [9]: 57.8 µM
